Data as given in patent US9480679B2, “Methods for treating malaria, tuberculosis and MAC diseases” (priority 2009, dated 2016).
In brackets after ≈: the same amount, converted by molar mass. Several values for one entry are separate records, joined by “and”; a condition that tells them apart may be missing. Identical values can stand only once. Like-named read-outs stand apart in the source and are kept apart here. Marks after values point to notes of the source that are not given here.

Legend:
[1] = test system: non-replicating M. tuberculosis; test: Low Oxygen Recovery Assay (LORA), non-replicating culture; format: cell-based; settings: non-replicating culture (anaerobic); two experiments
P. falciparum NF54 [2] = test: In vitro P. falciparum 72 hour assay (48+24); format: cell-based; settings: Plasmodium falciparum, NF54
Procedure: EXAMPLE. In vitro and in vivo activity against different species of Plasmodium parasites. CEM-101 was tested against intra-erythrocytic forms of P. falciparum derived from asynchronous cultures of the strain […]. […] CEM-101 was followed for 120 h. CEM-101 has delayed activity when compared to other agents.
In vitro P. falciparum data for CEM-101 in the 72 h Assay (48+24)

[3] = test system: luciferase expressing P. berghei liver stage parasites; test: Liver stage activity by in vivo imaging; settings: mice, PO dosing at 40 mg/kg/d×3 days
Procedure: Efficacy was measured by number of mice with delayed parasitemia and mice that were malaria free at day 31. Antimalarial liver stage activity was assessed in mice infected with luciferase expressing P. berghei parasites using an in vivo imaging system.

M. avium = M. avium in vitro activity summary (MIC90, MBC); format: cell-based
M. avium LPR ATCC 49601 = test: Murine model of M. avium infection, CFU in spleens and lungs; format: in vivo; settings: mice; for reduction in growth of MAC LPR in the spleens and lungs compared to the late controls: P<0.05
[4] = test system: P. berghei ANKA sporozoites; test: Causal prophylactic P. berghei sporozoite mouse model; format: in vivo
Procedure: EXAMPLE. CEM-101 activity as prophylactic. Mice inoculated IV with 0.1 ml, 100,000 P. berghei ANKA sporozoites from mosquitoes. Drug administered Day −1, 0 and 1, Once daily for 3 days.

P. falciparum NF54 [5] = test: In vitro P. falciparum 120 hour assay (96+24); format: cell-based; settings: Plasmodium falciparum, NF54
Procedure: EXAMPLE. In vitro and in vivo activity against different species of Plasmodium parasites. CEM-101 was tested against intra-erythrocytic forms of P. falciparum derived from asynchronous cultures of the strain […]. Parasite growth over 120 h was measured by the incorporation of radiolabelled [^3H]hypoxanthine (in hypoxanthine free culture medium) added after 96 h of drug incubation and 24 h prior to the termination of the test. CEM-101 was followed for 120 h. CEM-101 has delayed activity when compared to other agents.
In vitro P. falciparum data for CEM-101 in the 120 h Assay (96+24)

[6] = Systemic toxicity in mice with SC or PO dosing; format: in vivo; settings: SC or PO dosing as high as 160 mg/kg/d×3 days
Procedure: For blood stage infections, the minimum curative SC dose was 40 mg/kg/d×3 days, while 80 mg/kg/d×3 was the minimum active dose for PO route. In the P. berghei causal mouse model, CEM-101 was curative at 40 mg/kg/d×3 days with SC or PO dosing.

P. berghei blood stages = test: Blood stage treatment of P. berghei-infected mice, 3 day PO or SC dosing; format: in vivo; settings: blood stage infections
[7] = test system: replicating M. tuberculosis; test: Aero RLU (Relative Light Units under aerobic conditions), replicating culture; format: cell-based; settings: two experiments
P. berghei = test: Murine P. berghei model, oral 1x or 4x 100 mg/kg; format: in vivo; settings: for Parasitized RBC in one drop of blood (made by microscope): individual animals
Procedure: EXAMPLE. CEM-101 activity in infected mice.
EXAMPLE. CEM-101 was tested in the murine P. berghei model as described by Vennerstrom et al. Nature 430(7002):900-904 (2004), the disclosure of which is incorporated herein by reference.

[8] = test system: clinical XDR strains of M. tuberculosis; test: microbe, parasite or virus in culture; format: cell-based; settings: Mycobacterium tuberculosis

## CC[C@H]1OC(=O)[C@@](C)(F)C(=O)[C@H](C)[C@@H](O[C@@H]2O[C@H](C)C[C@H](N(C)C)[C@H]2O)[C@](C)(OC)C[C@@H](C)C(=O)[C@H](C)[C@H]2N(CCCCn3cc(-c4cccc(N)c4)nn3)C(=O)O[C@]12C [CEM-101, solithromycin]
[1]
  LORA: 10.43 µM and 7.55 µM
P. falciparum NF54 [2]; 72 h assay (48+24), read-out: IC50 NF54 TEST 1
  IC50: 0.919 µg/mL (≈ 1.09 µM)
P. falciparum NF54 [2]; 72 h assay (48+24), read-out: IC50 NF54 TEST 2
  IC50: 1.54 µg/mL (≈ 1.82 µM)
P. falciparum NF54 [2]; 72 h assay (48+24), read-out: IC50 NF54 TEST 3
  IC50: 1.49 µg/mL (≈ 1.76 µM)
P. falciparum NF54 [2]; 72 h assay (48+24), read-out: IC50 NF54 TEST 4
  IC50: 1.26 µg/mL (≈ 1.49 µM)
P. falciparum NF54 [2]; 72 hour assay (48+24), read-out: IC50 NF54 Test 1
  IC50: 0.919 µg/mL (≈ 1.09 µM)
P. falciparum NF54 [2]; 72 hour assay (48+24), read-out: IC50 NF54 Test 2
  IC50: 1.54 µg/mL (≈ 1.82 µM)
P. falciparum NF54 [2]; 72 hour assay (48+24), read-out: IC50 NF54 Test 3
  IC50: 1.49 µg/mL (≈ 1.76 µM)
P. falciparum NF54 [2]; 72 hour assay (48+24), read-out: IC50 NF54 Test 4
  IC50: 1.26 µg/mL (≈ 1.49 µM)
[3]
  antimalarial activity against liver stage parasites by in vivo imaging: No demonstrable antimalarial activity
M. avium; Mycobacterium avium, all strains tested, read-out: MBC
  MBC: 2 µg/mL (≈ 2.37 µM)
M. avium; Mycobacterium avium, susceptible phenotype, N=24, read-out: MIC
  MIC: 1 µg/mL (≈ 1.18 µM)
M. avium; N=30
  MBC (range): 2 (2) μg/mL
  MIC90 (range): 1 (1) μg/mL
M. avium; resistant phenotype, MBCs calculated for 4 of the resistant strains
  MBC: 2^a μg/mL
M. avium; resistant phenotype, N=6
  MIC: 1 µg/mL (≈ 1.18 µM)
M. avium; susceptible phenotype, N=24
  MBC: 2 µg/mL (≈ 2.37 µM)
M. avium LPR ATCC 49601; 25 mg/kg orally 5 days/week for 4 weeks, P>0.05
  reduction in growth of MAC LPR in the spleens and lungs compared to the late controls, significant or not: not
M. avium LPR ATCC 49601; 50 mg/kg orally 5 days/week for 4 weeks
  reduction in growth of MAC LPR in the spleens and lungs compared to the late controls: significant
M. avium LPR ATCC 49601; 100 mg/kg orally 5 days/week for 4 weeks
  reduction in growth of MAC LPR in the spleens and lungs compared to the late controls: significant
M. avium LPR ATCC 49601; 200 mg/kg orally 5 days/week for 4 weeks
  reduction in growth of MAC LPR in the spleens and lungs compared to the late controls: significant
M. avium LPR ATCC 49601; 200 mg/kg, difference not statistically significant (P>0.05)
  reduction in CFU of MAC LPR in spleens and lungs compared to the CLA 200 mg/kg group: greater
[4]; 20 mg/kg/d×3 days
  mice remaining parasite free: 3/5
[4]; 40 mg/kg/d×3 days with SC or PO dosing
  outcome in the P. berghei causal mouse model: curative
[4]; causal mouse malaria models, PO dosing at 40 mg/kg/d×3 days
  prophylactic activity: 100%
[4]; mice dosed as low as 40 mg/kg/d×3 days
  blood stage infection after prophylactic dosing: no blood stage infection was detected
[4]; mice, PO, dose 80, once daily Day -1, 0 and 1, (3 mice)
  Activity: Complete curative
[4]; mice, PO, dose 120, once daily Day -1, 0 and 1, (3 mice)
  Activity: Complete curative
[4]; mice, PO, dose 160, once daily Day -1, 0 and 1
  Activity: Complete curative
[4]; mice, SC, dose 40, once daily Day -1, 0 and 1
  Activity: Complete curative
[4]; mice, SC, dose 80, once daily Day -1, 0 and 1
  Activity: Complete curative
[4]; mice, SC, dose 120, once daily Day -1, 0 and 1
  Activity: Complete curative
[4]; mice, SC, dose 160, once daily Day -1, 0 and 1
  Activity: Complete curative
[4]; mice, causal prophylactic model
  minimum active dose: 20 mg/kg/d×3 days
P. falciparum NF54 [5]; 120 h assay (96+24), read-out: IC50 NF54
  IC50: 0.0024 µg/mL (≈ 0.00284 µM)
P. falciparum NF54 [5]; 120 hour assay (96+24), read-out: IC50 NF54 Test 1
  IC50: < 0.156 µg/mL
P. falciparum NF54 [5]; 120 hour assay (96+24), read-out: IC50 NF54 Test 2
  IC50: < 0.015 µg/mL
P. falciparum NF54 [5]; 120 hour assay (96+24), read-out: IC50 NF54 Test 3
  IC50: 0.0024 µg/mL (≈ 0.00284 µM)
[6]
  systemic toxicity: No systemic toxicity
P. berghei blood stages; PO
  minimum active dose for PO route: 80 mg/kg/d×3
P. berghei blood stages; SC
  minimum curative SC dose: 40 mg/kg/d×3 days
[7]
  Aero RLU: 7.19 µM and 6.95 µM
P. berghei; mice
  outcome in murine malarial infection model: curative
P. berghei; mice, 1 × 100 mg/kg oral, DMSO
  Activity (%): 80.05%
  Survival: 15.7 days
P. berghei; mice, 1 × 100 mg/kg oral, HPMC
  Activity (%): 81.45%
  Survival: 12.7 days
P. berghei; mice, 4 × 100 mg/kg oral, DMSO
  Activity (%): 99.79%
  Cure (%): 100%
P. berghei; mice, 4 × 100 mg/kg oral, DMSO, survivors sacrificed on Day 31
  Survival: 30.0 days
P. berghei; mice, 4 × 100 mg/kg oral, HPMC
  Activity (%): 99.79%
  Cure (%): 100%
P. berghei; mice, 4 × 100 mg/kg oral, HPMC, survivors sacrificed on Day 31
  Survival: 30.0 days
P. berghei; mice, 4× 100 mg/kg p.o.
  blood from treated animals parasite free or not: parasite free
P. berghei; mice, 4× 100 mg/kg p.o., DMSO
  Visual Observation (parasites in blood): neg
  Parasitized RBC in one drop of blood (made by microscope): 0
P. berghei; mice, 4× 100 mg/kg p.o., HPMC
  Visual Observation (parasites in blood): neg
  Parasitized RBC in one drop of blood (made by microscope): 0
P. berghei; mice, P. berghei strain ANKA, 4×100 mg/kg, cure = survival on Day 30 with no detectable parasites
  outcome of treatment: cure
P. berghei; murine P. berghei model (Vennerstrom et al.)
  activity compared with Artesunate in the mouse model: equivalent activity to Artesunate
[8]; 168 h, strain OB005, 1 week
  MIC: 3.12 µg/mL (≈ 3.7 µM)
[8]; 168 h, strain OB031, 1 week
  MIC: 0.049 µg/mL (≈ 0.058 µM)
[8]; 168 h, strain OB076a, 1 week
  MIC: 0.049 µg/mL (≈ 0.058 µM)
[8]; 168 h, strain OB076b, 1 week
  MIC: 0.049 µg/mL (≈ 0.058 µM)
[8]; 168 h, strain OB082, 1 week
  MIC: 0.049 µg/mL (≈ 0.058 µM)
[8]; 336 h, strain OB005, 2 weeks
  MIC: 12.5 µg/mL (≈ 14.8 µM)
[8]; 336 h, strain OB019, 2 weeks
  MIC: 1.56 µg/mL (≈ 1.85 µM)
[8]; 336 h, strain OB031, 2 weeks
  MIC: 0.78 to 1.56 µg/mL (≈ 0.923 to 1.85 µM)
[8]; 336 h, strain OB062, 2 weeks
  MIC: 0.39 to 0.78 µg/mL (≈ 0.462 to 0.923 µM)
[8]; 336 h, strain OB076a, 2 weeks
  MIC: 0.098 µg/mL (≈ 0.116 µM)
[8]; 336 h, strain OB076b, 2 weeks
  MIC: 0.049 µg/mL (≈ 0.058 µM)
[8]; 336 h, strain OB081, 2 weeks
  MIC: 12.5 µg/mL (≈ 14.8 µM)
[8]; 336 h, strain OB082, 2 weeks
  MIC: 0.098 µg/mL (≈ 0.116 µM)
[8]; strain OB031, after a week (as the cell number increased)
  MIC: 0.78 to 1.56 µg/mL (≈ 0.923 to 1.85 µM)
[8]; strain OB031, initially
  MIC: 0.049 µg/mL (≈ 0.058 µM)
